In article PMC5418348, “Identification of a Novel Allosteric Inhibitory Site on Tryptophan Hydroxylase 1 Enabling Unprecedented Selectivity Over all Related Hydroxylases” (Frontiers in Pharmacology, 2017):
“Also recorded” adds a separate entry of the source. Where two headings read alike, the source gives them in different places.

What was measured:
[1] = test system: BON (human pancreatic carcinoid) cell line; experiment: BON cell assay of D4-5-HT production from deuterated tryptophan; format: cell-based; conditions: BON cells; for IC50: read-out: IC50 inhibition of D4-5-HT production
Protocol: (§1) 5-HT newly synthesized through TPH activity was assessed both in vitro and in vivo by addition of deuterium labeled substrate (deuterated tryptophan – TRP-d5) and subsequently generated deuterium labeled product (deuterated serotonin – 5HT-d4) (Figure 6A). BON (human pancreatic carcinoid) cell line was a gift from Dr. Courtney M. Townsend (University of Texas, Galveston, TX, USA) and cultured as previously described ([Tran et al., 2004]). Cells were seeded overnight in 96-well plates at 1.2 × 10^5 cells per well in 200 μL growth media containing 1% FBS, and incubated at 37°C, 5% CO2. After 24 h, cell media was exchanged for […] serum-free media. All reagents added to the cells in subsequent steps were diluted in serum-free media. Cells were treated with 25 μL of either compound or DMSO vehicle (1 % v/v) for 15 min at 37°C, 5% CO2 and then treated with 25 μL 196 mM deuterated-tryptophan (Isotec, UK) for a further 2 h at 37°C, 5% CO2. BON cell lysates were then prepared by removal of all media with subsequent addition of […] HTAB. These lysates were further analyzed for D4-5-HT content by LCMS. Cell toxicity was also assessed in BON cells using a standard lactate dehydrogenase (LDH) assay according to instructions.

BON cells = experiment: LDH cell toxicity assay in BON cells; format: cell-based, human; conditions: Figure 5B
Protocol: as §1

Human TPH-1 = target: T1, Human TPH-1 (Homo sapiens, UniProt P17752); experiment: In vitro human TPH-1 enzyme activity assay (fluorescence); format: biochemical; conditions: literature ref Liu et al., 2008
T1 sequence (P17752 1-444): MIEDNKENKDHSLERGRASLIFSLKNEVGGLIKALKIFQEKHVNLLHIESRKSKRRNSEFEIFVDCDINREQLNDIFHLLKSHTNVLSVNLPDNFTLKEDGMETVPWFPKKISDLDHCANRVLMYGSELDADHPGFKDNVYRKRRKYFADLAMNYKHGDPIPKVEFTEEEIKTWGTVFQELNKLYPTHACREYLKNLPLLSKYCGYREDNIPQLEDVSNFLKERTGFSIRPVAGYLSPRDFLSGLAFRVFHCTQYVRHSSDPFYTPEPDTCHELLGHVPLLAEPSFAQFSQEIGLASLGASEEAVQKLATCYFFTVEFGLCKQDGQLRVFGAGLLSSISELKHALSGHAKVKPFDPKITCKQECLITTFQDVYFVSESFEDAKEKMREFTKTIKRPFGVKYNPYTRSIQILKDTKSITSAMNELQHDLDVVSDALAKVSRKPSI
Protocol: Human TPH-1 and Human TPH-2 enzyme assays were carried out at room temperature with atmosphere oxygen in a volume of 25 μL. A base buffer of 40 mM HEPES pH 7.0, 200 mM ammonium sulfate was made and stored at 4°C. On the day of assay, final concentrations of 10 μM iron ammonium sulfate, 0.1 mg mL^-1 BSA, 25 μg mL^-1 catalase, and 0.04% Chaps were added and designated as enzyme buffer. Substrate buffer was made the same way but for the addition of a final concentration of 10 mM DTT. Enzymes were diluted as follows: 1.25x = 12.5 nM TPH1 (Final = 10 nM) or 1.25x = 37.5 nM TPH2 (Final = 30 nM) in enzyme buffer. Substrates were diluted as follows: 5x = 200 μM (6R)-5,6,7,8-Tetrahydrobiopterin dihydrochloride (BH4) (Final = 40 μM) and 5x = 100 μM Tryptophan (Final = 20 μM) in substrate buffer. Compounds were serially diluted 1:1 in DMSO to 50x = 500 μM (Final = 10 μM). Assays were performed in GNF Custom Greiner Black 384-well plates. Compounds were added at 0.5 μL per well. Enzymes were added at 20 μL per well. Compounds and enzymes were pre-incubated 15 min at room temperature. Substrates were added at 5 μL per well to initiate the reaction. The plates were covered and incubated at room temperature: 30 min for TPH1 and 60 min for TPH2. The reactions were quenched with the addition of 25 μL 30% sulfuric acid.

TPH1 = test system: TPH1; parameters: method as in Liu et al., 2008; conditions: ref Liu et al., 2008; read-out: TPH1 activity IC50 (literature); cited from earlier work
TPH1 (104–394) = target: T2, TPH1 (104–394) (Homo sapiens, UniProt P17752); experiment: Biacore surface plasma resonance binding / competition experiments; conditions: SPR, previously estimated, data not shown; read-out: KD toward TPH1
T2 construct: His6 (N, cleaved yes); made in house; host or cells: Escherichia coli BL21 Rosetta (DE3)
Protocol: Biosensor experiments were performed on a Biacore T100 instrument (GE Healthcare). Biotinylation and capture of TPH1 was performed by adding a volume of freshly prepared EZ-link solution (dissolved in water) to an aliquot of TPH1(104–394) in a 2:1 molar ratio and incubated on ice. After 30 min of incubation, the reaction was stopped by the addition of 100 mM of Tris pH7.5. Unreacted biotin was removed by passing the solution over a fast desalting column (Thermo scientific #89849, equilibrated with PBS, 0.5 mM TCEP) three times. Biotinylated protein was aliquoted and kept at -80°C until use. Biotinylated TPH1 (104–394) was immobilized at 22°C on a SA chip surface (GE Healthcare) equilibrated with 10 mM Hepes, 150 mM NaCl, 1 mM TCEP, 0.05% Tween20, 5% glycerol, pH7.6. Approximately 3200RU were immobilized using this procedure. A streptavidin surface served as the reference.
Binding experiments were performed at 20°C using 10 mM Hepes, 150 mM NaCl, 1 mM TCEP, 0.05% Tween20, 5% glycerol, pH7.6, 2% DMSO as running buffer. […] Using a flow rate of […], samples were injected for 120 s and dissociation was monitored for 240 s. […]

SMILES: N[C@@H](Cc1ccc(Cl)cc1)C(=O)O (racemic) [pCPA, p-chlorophenylalanine]
- IC50 inhibition of D4-5-HT production [1]: could not be established; also recorded: not measurable
- IC50 ([1]; Figure 5B, 15 min compound then 2 h deuterated tryptophan, n = 3): > 30 µM
- LDH tox (BON cells): > 30 µM
- difference between literature TPH1 IC50 and the values reported here (Human TPH-1): approximately 50 fold
- IC50 (TPH1): 250 µM

SMILES: N[C@@H](Cc1c[nH]c2ccccc12)C(=O)O [L-Trp]
- Kd (TPH1 (104–394)): 56 µM

SMILES: C[C@H](O)[C@H](O)C1=Nc2c(nc(N)[nH]c2=O)NC1 [BH2]
- Kd (TPH1 (104–394)): 11 µM

SMILES: Nc1nc(OC(c2ccc(-c3cccc(F)c3)cc2)C(F)(F)F)cc(-c2ccc(C[C@H](N)C(=O)O)cc2)n1 (stereo partly shown) [LP533401]
- IC50 [1]: 12.4 µM
- LDH tox (BON cells): > 30 µM
- IC50 (TPH1): 0.7 µM
